Consider 8 compounds from ChEMBL document CHEMBL5465560, “Selectivity Literature for EUbOPEN Chemogenomic Library” (2024).

Test [1] has as its target T1, Serine/threonine-protein kinase Nek8 (Homo sapiens) (UniProt Q86SG6).
T1 sequence (whole entry): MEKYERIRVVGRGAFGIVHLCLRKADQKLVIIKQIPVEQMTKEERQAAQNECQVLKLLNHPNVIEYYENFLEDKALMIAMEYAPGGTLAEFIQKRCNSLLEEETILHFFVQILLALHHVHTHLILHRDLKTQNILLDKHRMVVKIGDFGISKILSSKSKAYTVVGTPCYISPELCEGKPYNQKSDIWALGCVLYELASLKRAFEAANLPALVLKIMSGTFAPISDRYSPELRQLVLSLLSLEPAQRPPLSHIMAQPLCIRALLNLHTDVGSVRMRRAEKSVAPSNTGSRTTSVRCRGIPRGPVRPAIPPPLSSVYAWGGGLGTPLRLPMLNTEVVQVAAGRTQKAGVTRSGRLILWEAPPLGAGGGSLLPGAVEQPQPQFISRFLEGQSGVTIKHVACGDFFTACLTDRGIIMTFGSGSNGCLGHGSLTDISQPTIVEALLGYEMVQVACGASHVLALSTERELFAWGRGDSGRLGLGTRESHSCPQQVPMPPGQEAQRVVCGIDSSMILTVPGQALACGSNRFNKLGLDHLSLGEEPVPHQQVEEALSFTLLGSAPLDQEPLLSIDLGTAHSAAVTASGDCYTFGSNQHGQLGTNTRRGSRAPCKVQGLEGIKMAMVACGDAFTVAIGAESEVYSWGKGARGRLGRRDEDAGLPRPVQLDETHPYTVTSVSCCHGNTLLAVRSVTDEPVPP
Put plainly: Selectivity interaction (Kinase panel (KiNativ target engagement assay in Jurkat cells)) EUB0001635a NEK8. It counts as cell-based. As to conditions: at 1 µM.

In test [2] the target is Serine/threonine-protein kinase 10 (Homo sapiens) (UniProt O94804). Nature of the test: Selectivity interaction (Ambit KINOMEscan and KiNATiv profiling in Jurkat cells) EUB0000090b STK10. It is filed as cell-based. As to conditions: at 1 µM.
Chain of Serine/threonine-protein kinase 10 (Homo sapiens) (O94804 whole entry, looked up): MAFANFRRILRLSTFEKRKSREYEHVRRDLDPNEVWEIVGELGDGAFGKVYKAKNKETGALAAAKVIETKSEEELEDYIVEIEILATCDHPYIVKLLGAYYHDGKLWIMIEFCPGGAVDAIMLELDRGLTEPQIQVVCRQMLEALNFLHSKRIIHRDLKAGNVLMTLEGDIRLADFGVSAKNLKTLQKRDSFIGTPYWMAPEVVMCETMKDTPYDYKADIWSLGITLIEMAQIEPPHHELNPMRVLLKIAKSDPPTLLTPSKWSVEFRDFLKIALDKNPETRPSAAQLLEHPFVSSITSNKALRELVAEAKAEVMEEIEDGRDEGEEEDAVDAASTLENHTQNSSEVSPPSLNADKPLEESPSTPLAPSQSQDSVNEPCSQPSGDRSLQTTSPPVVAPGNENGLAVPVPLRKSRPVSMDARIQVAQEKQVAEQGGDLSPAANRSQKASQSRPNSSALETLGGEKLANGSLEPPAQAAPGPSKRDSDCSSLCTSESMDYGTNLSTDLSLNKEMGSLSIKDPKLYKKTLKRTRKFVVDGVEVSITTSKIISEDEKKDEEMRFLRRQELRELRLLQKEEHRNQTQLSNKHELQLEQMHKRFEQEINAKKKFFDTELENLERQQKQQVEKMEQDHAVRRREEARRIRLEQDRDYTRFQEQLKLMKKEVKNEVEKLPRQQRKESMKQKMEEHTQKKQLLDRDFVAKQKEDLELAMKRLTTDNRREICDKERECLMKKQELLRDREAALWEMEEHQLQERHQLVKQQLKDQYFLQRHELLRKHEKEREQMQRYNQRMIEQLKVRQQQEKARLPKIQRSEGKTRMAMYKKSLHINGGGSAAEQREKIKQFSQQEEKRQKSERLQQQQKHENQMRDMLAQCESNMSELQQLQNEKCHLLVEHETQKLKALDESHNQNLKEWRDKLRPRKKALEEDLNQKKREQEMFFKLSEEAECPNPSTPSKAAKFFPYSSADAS
Test [3] has as its target T2, Serine/threonine-protein kinase TNNI3K (Homo sapiens) (UniProt Q59H18).
T2 sequence (whole entry): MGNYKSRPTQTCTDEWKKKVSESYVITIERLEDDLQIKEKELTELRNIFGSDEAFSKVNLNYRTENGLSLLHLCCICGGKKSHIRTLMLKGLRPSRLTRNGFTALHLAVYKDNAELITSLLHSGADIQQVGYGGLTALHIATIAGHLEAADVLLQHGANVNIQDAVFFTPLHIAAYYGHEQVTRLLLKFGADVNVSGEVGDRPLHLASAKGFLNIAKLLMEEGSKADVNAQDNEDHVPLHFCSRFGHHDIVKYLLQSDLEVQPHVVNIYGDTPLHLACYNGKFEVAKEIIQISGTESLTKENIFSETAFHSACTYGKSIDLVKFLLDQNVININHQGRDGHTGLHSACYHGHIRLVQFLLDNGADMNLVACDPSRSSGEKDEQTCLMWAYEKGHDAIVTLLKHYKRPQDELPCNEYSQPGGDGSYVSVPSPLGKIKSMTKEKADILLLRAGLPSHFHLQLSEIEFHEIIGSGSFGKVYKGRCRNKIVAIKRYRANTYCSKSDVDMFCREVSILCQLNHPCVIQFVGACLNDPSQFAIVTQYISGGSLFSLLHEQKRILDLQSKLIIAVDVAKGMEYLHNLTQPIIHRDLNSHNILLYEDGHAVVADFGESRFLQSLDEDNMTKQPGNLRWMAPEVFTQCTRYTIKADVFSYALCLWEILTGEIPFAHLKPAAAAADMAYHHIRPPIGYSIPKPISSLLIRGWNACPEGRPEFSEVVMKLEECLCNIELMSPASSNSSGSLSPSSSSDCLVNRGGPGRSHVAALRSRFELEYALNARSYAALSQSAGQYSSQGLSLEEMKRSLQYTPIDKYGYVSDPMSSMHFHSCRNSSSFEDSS
Nature of the test: Selectivity interaction (KinomeScan (DiscoverX)) EUB0000607a TNNI3K. The note with it: at 10 µM.

Test [4] addresses T3, Mitogen-activated protein kinase 12 (Homo sapiens) (UniProt P53778).
T3 sequence (whole entry): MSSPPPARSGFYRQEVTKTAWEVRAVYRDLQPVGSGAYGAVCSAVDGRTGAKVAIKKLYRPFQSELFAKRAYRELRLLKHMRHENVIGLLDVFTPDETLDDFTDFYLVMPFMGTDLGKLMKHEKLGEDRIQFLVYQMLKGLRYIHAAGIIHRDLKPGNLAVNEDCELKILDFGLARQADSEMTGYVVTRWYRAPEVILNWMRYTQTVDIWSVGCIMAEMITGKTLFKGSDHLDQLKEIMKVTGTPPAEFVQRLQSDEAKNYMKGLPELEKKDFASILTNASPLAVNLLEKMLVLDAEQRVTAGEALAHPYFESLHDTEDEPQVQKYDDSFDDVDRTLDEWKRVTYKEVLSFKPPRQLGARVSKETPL
Put plainly: Selectivity interaction (KinomeScan (DiscoverX)) EUB0000666a MAPK12. The note with it: at 10 µM.

The target of test [5] is T4, Serine/threonine-protein kinase 4 (Homo sapiens) (UniProt Q13043).
T4 sequence (whole entry): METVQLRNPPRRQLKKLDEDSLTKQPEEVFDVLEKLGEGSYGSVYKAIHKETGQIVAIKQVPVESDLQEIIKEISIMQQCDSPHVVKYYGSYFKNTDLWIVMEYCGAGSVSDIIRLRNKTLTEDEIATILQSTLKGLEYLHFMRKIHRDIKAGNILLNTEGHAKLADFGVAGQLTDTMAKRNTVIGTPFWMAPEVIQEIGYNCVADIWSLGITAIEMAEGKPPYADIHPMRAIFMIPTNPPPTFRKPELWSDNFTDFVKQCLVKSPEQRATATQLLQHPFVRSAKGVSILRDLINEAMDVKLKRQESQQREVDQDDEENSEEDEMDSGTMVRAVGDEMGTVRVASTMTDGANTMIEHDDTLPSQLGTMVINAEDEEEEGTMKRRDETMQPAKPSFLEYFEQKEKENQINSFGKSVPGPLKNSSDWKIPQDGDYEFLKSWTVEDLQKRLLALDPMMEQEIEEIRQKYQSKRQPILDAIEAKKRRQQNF
Put plainly: Selectivity interaction (Kinase panel (DSF assay)) EUB0001558a STK4. (In general: In DSF a fluorescence change marks the thermal transition of the protein.)

The target of test [6] is Myosin-IIIa (Homo sapiens) (UniProt Q8NEV4). Put plainly: Selectivity interaction (KinomeScan (DiscoverX)) EUB0000655a MYO3A. As to conditions: at 10 µM.
Chain of Myosin-IIIa (Homo sapiens) (Q8NEV4 whole entry): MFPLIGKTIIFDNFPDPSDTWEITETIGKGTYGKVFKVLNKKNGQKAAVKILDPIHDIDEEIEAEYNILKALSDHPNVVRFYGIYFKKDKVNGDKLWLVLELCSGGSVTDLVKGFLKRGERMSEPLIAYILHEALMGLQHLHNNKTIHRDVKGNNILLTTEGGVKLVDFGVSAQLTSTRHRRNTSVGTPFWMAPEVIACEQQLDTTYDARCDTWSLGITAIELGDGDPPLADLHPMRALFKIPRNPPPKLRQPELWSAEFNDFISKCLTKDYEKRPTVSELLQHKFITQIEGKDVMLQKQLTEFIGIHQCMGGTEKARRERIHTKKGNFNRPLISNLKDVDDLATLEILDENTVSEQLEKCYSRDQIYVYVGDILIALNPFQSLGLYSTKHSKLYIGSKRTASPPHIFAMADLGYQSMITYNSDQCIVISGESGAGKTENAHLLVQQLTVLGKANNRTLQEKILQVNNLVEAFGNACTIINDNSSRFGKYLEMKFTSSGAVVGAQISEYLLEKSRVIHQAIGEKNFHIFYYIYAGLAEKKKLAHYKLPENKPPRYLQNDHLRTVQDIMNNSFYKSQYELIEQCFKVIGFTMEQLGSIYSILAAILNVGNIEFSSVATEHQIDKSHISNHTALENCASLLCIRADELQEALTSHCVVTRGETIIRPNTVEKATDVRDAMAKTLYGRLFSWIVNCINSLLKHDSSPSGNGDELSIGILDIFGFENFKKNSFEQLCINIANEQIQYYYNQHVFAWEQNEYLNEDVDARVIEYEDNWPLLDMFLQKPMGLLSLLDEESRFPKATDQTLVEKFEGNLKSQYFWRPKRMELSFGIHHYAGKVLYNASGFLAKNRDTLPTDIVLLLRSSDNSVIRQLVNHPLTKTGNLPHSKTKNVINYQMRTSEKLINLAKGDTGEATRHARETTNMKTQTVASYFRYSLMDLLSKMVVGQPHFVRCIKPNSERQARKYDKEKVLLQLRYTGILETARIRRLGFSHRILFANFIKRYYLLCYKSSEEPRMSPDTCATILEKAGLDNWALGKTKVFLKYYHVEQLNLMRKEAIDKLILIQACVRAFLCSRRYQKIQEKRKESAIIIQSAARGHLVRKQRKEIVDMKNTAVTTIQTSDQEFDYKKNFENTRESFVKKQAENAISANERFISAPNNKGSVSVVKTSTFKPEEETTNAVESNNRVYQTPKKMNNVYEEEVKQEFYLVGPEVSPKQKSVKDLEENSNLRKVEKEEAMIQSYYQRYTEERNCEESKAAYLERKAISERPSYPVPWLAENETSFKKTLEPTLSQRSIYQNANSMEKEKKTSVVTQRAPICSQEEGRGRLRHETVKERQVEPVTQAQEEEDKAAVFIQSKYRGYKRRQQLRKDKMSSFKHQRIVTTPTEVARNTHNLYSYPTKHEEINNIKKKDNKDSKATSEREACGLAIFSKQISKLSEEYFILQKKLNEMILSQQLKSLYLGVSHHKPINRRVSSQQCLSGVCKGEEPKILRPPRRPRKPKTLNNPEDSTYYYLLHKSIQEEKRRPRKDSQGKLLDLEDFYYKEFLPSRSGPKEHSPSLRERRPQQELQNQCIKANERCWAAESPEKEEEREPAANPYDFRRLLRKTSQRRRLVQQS
Test [7] addresses Vascular endothelial growth factor receptor 2 (Homo sapiens, UniProt P35968). Put plainly: Selectivity interaction (KinomeScan (DiscoverX)) EUB0001049a KDR. As to conditions: at 1 µM.
Test [8] concerns the target Cyclin-dependent kinase-like 3 (Homo sapiens) (UniProt Q8IVW4). Put plainly: Selectivity interaction (KinomeScan (DiscoverX)) EUB0000595a CDKL3. The note with it: at 10 µM.

Chain of Vascular endothelial growth factor receptor 2 (P35968 whole entry): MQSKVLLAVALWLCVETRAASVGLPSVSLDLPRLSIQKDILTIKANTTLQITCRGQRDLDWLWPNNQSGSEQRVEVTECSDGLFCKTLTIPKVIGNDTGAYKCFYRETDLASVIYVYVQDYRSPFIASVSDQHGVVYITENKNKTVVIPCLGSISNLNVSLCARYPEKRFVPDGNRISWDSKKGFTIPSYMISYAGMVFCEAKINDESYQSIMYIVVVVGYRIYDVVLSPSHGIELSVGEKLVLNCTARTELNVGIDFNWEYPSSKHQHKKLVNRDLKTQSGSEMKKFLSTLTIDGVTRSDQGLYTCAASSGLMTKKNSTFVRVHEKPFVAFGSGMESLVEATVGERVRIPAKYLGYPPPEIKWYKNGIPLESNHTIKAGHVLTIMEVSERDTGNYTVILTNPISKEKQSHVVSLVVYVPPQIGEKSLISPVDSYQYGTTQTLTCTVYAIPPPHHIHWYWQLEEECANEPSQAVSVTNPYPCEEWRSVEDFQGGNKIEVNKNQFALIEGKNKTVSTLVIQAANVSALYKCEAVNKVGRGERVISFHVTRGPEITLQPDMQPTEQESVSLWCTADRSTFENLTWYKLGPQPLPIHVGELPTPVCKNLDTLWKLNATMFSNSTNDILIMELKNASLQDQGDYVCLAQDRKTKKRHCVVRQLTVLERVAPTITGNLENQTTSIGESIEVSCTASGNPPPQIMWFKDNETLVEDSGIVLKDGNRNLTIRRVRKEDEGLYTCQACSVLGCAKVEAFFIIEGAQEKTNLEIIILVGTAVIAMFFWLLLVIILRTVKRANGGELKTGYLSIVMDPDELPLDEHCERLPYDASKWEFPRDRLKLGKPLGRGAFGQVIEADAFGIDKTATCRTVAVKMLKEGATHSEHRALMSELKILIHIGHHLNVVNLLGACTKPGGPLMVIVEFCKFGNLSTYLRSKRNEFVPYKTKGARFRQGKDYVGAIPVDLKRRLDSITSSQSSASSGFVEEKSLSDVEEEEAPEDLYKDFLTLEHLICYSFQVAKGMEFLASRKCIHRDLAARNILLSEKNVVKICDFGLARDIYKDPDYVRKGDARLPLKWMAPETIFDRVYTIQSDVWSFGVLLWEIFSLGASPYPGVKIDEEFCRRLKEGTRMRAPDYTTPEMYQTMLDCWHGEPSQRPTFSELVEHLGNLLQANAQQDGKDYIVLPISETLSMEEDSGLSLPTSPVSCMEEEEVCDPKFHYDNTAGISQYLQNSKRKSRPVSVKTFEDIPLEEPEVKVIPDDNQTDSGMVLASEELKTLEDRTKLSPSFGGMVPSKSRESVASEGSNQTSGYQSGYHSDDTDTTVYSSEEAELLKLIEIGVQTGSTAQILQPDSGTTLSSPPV
Chain of Cyclin-dependent kinase-like 3 (Homo sapiens) (Q8IVW4 whole entry, looked up): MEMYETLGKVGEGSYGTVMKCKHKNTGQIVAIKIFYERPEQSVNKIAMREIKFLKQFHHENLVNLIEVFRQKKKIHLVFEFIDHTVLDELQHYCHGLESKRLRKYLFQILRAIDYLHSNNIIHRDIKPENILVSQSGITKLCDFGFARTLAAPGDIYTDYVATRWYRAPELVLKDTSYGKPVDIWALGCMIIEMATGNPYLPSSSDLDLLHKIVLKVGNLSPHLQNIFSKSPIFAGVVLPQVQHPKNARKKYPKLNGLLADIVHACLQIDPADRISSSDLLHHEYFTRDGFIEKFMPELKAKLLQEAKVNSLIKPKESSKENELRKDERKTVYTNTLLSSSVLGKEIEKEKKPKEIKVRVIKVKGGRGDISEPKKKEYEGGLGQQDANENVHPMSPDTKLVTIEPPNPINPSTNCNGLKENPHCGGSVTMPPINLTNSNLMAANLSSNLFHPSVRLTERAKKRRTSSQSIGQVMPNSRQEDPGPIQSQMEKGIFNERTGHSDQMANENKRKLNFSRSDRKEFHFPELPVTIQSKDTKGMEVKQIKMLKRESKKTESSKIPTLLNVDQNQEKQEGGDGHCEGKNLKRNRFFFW

`C=CC(=O)Nc1ccc(C(=O)Nc2[nH]nc3c2CN(C(=O)N[C@H](CN(C)C)c2ccccc2)C3(C)C)cc1`: in test [1], the % of engagement is -10.5%.
On to `CN(C)C/C=C/C(=O)Nc1ccc(C(=O)N2CCCC(Nc3ncc(Cl)c(-c4c[nH]c5ccccc45)n3)C2)cc1` (stereo not drawn), for which the % of control in test [2] was 80%.
`CNC(=O)Nc1ccc(-c2nc(N3CC4CCC(C3)O4)c3cnn(C4CCC5(CC4)OCCO5)c3n2)cc1`: the % of control in test [3] stood at 59%.
`O=C(NOC[C@H](O)CO)c1ccc(F)c(F)c1Nc1ccc(I)cc1F` came in with a % of control in test [4] of 100%.
`CC(C)(O)[C@H](F)CN1Cc2cc(NC(=O)c3cnn4cccnc34)c(N3CCOCC3)cc2C1=O` registered a dTM in test [5] of 1.9 K.
For the compound `CN(C)CCOc1ccc(-c2nc(-c3ccncc3)c(-c3ccc4c(c3)CC/C4=N\O)[nH]2)cc1`, the % of control in test [6] came to 94%.
For `COc1cc(Nc2nc(C)cc(-c3cnn4nc(OC)ccc34)n2)cc(C(F)(F)F)c1`, the % of control in test [7] came out at 95%.
For the compound `COCC(=O)NC/C=C/c1ccc2ncnc(Nc3ccc(Oc4ccc(C)nc4)c(C)c3)c2c1` [CP-724714], the % of control in test [8] stood at 100%.
